Results reported in patent US20260335272A1, “SAGERINIC ACID AND COMPOSITIONS CONTAINING SAME, FOR USE IN THE PREVENTION AND/OR TREATMENT OF SENESCENCE-RELATED DISORDERS IN A HUMAN OR ANIMAL” (A2P SCIENCES, priority 2022, published 2026).
Blank lines part the entries; values can stand above or below the compound they belong to.

Legend:
SIRT1 = target: T1, SIRT1 (Homo sapiens, UniProt Q96EB6); assay: SIRT1 Inhibitor/Activator screening kit (ab283377), fluorimetric sirtuin-1 activation; assay type: biochemical; settings: for Activity (activation of sirtuin-1): 2.28% (w/V) activator in DMSO diluted 1:250 in DTT buffer, 25 μl, 37 °C, 30-60 min, Ex/Em=400/505 nm
T1 construct: fluorogenic deacetylation assay
T1 sequence (Q96EB6 1-747): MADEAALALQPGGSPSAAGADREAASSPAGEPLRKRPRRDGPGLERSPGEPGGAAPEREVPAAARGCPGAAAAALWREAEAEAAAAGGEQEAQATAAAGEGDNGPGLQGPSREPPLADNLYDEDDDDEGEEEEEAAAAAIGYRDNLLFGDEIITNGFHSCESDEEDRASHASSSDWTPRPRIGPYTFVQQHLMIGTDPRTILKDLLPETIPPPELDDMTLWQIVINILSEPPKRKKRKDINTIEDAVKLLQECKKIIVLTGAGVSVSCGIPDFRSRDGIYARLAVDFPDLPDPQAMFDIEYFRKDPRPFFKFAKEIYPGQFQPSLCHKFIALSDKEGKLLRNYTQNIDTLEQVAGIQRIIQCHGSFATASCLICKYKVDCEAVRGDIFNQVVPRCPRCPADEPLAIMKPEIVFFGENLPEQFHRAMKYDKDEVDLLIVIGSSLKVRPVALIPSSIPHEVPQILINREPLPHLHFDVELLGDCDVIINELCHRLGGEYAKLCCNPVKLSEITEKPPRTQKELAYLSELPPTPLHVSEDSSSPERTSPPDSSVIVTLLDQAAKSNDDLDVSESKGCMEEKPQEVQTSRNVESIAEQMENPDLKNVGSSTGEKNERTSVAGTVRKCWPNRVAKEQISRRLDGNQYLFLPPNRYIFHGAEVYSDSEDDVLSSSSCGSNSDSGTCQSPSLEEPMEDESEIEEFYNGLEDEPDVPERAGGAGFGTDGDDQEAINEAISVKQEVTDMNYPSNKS
Source text: The SIRT1 Inhibitor/Activator screening kit deacetylates the substrate with SIRT1, followed by cleavage of the deacetylated substrate to release the fluorescent group, which is detected by fluorimetry at Ex/Em=400/505 nm.
The SIRT1 activator enhances the SIRT1 activity resulting in a higher fluorescent signal compared to the control. This kit provides a rapid, simple, sensitive and reliable test, suitable for high-throughput screening of SIRT1 activators.
• Solutions of the kit: Reference ab283377 (Abeam) • Buffer • Substrate • SIRT1 • NAD • DTT • DMSO Réference 34869 (Honeywell Riedel-de-Haen)
A solution of exactly 2.28% (w/V) activator (resveratrol (Sigma Aldrich, ref.R5010) and sagerinic acid prepared according to example 5.1.) is made in DMSO. Dilute to 1:250 in the DTT buffer solution.
Preparation of the enzyme solution: Make the following additions to 3 separate wells:
• 1. To the SIRT1 enzyme solution wells, add: • 25 μl of undiluted activator solution (2.28% solution) in a well as activator control (AC) • 25 μl of DTT-free buffer in a well as an enzyme control (EC) • 25 μl of diluted activator solution as assay (S) • 2. In another well, add 50 μl of DTT-free buffer as a blank control (without enzyme). • 3. Mix well and incubate the plaque for 5 minutes at 37 °C
Preparation of the substrate: After incubation, make the following additions to each well:
Mix and incubate at 37 °C for 30-60 min.
Mix well and incubate for 10 min at 37 °C, protected from light.
Read the fluorescence (Ex/Em=400/505 nm).
The activation of sirtuin-1 by sagerinic acid was compared with that of resveratrol as a reference molecule.

[1] = DPPH free radical elimination (anti-radical / oxidative stress effect); assay type: physicochemical; settings: for Activity (elimination of DPPH free radical): antioxidant solution 0.0007% (ascorbic acid in ethyl alcohol, sagerinic acid in water), 0.15 ml in 4.5 ml, phosphate buffer pH 7, 5 min, OD at 519 nm
Description: The principle of the method for assessing the effect of sagerinic acid compared to ascorbic acid as a reference molecule is based on the elimination of a stable free radical, the 2,2-Diphenyl-1-picrylhydrazyl (DPPH Sigma Aldrich ref D9132).
Dissolve 0.177 g monopotassium phosphate and 0.730 g dibasic sodium phosphate dihydrate in 50 ml purified water. The pH is adjusted if necessary.
A solution of exactly 0.0027% (w/V) DPPH in methanol is made.
A solution of exactly 0.1% (w/V) ascorbic acid (Riedel-de-Haen, ref.33034) is made in ethyl alcohol. This solution is diluted to 0.0007% (V/V) in ethyl alcohol.
A solution of exactly 0.1% (w/V) sagerinic acid (prepared according to example 5.1.) is made in water. This solution is diluted to 0.0007% (V/V) in water.
(§1) A series of hermetically sealed pillboxes are filled with:
For the sample and the blank: • After addition, stir for 5 min on a magnetic stirrer • Add 4 ml toluene • Stir for 30 seconds with a magnetic stirrer • Allow to settle for 20 seconds to 1 minute (if necessary) • Recover the organic phase from the top using an automatic pipette, taking care not to recover any aqueous phase • Read the OD of the organic phase using a spectrophotometer at 519 nm

[2] = Protein deglycating activity: release of benzoic acid from 1-phenyl-1,2-propanedione (PPD), HPLC; settings: for Activity (protein deglycating activity): 0.25% (w/V) product, 0.375% (w/V) PPD, 37 °C, 24 hours, phosphate buffer pH 7.4-methanol 50/50, benzoic acid by HPLC at 229 nm
Description: The test products in 0.25% (w/V) solution are left in contact with a 0.375% (w/V) solution of 1-phenyl-1,2-propanedione (PPD) for 24 hours at 37 °C. An HPLC dosing, at 229 nm after passage through an Ascentis® Express C18 column, was carried out at TO and again after 24 hours so as to determine the benzoic acid content. Calculating the percentage of pmol of benzoic acid/μmol of PPD in the reaction medium determines the activity of the deglycants.
Dissolve 0.178 g monopotassium phosphate and 0.955 g dibasic sodium phosphate dihydrate in 100 ml purified water. The pH is adjusted if necessary.
A mixture is made with 50 ml phosphate buffer pH 7.4 and 50 ml methanol.
A solution of exactly 0.375% (w/V) PPD is made in the mixture buffer phosphate pH 7.4—methanol (50/50).
A solution of approximately 0.25% (w/V) of the product to be tested is made in the mixture buffer phosphate pH 7.4—methanol (50/50).
Product to be tested: Alagebrium chloride (MedChem Express, ref. HY-106024B), Sagerinic acid (prepared according to example 5.1.).
A stock solution of approximately 0.08% (w/V) benzoic acid is made in ethyl alcohol. This solution is diluted 1:10 (V/V) in purified water (D).
(D) is then diluted 1:5, 2:5, 3:5 and 4:5 (V/V) in purified water. (D1, D2, D3 and D4).
A linear calibration line was established: area of the benzoic acid peak, with a retention time of 9.17 min and observed at 229 nm, as a function of the concentration in % (w/V).
as §1
Stir after each addition.
0.05 ml is taken from each pillbox to measure the benzoic acid content at TO. The pillboxes are resealed and placed in an oven at 37 °C for a minimum of 21 to a maximum of 24 hours.
The same volume will be taken for dosing on leaving the oven.
The time at 37 °C must be exactly the same for the control and all the tests, so they are prepared as they go along.
The 0.05 ml samples are diluted 1:5 (V/V) in purified water, i.e. by adding 0.2 ml. […]
The % of pmol of benzoic acid/μmol of PPD in the reaction medium is calculated: • TT0×10000×100/122.12×12.655 […]

Collagenase = Collagenase activity kit (Sigma Aldrich MAK293, FALGPA substrate), anti-collagenase activity; assay type: biochemical; settings: vs reference molecule hamamelitannin
Description: A collagenase activity analysis kit (Sigma Aldrich MAK293) is used. The kit allows to screen collagenase inhibitors by measuring collagenase activity using a synthetic peptide (FALGPA) that mimics the structure of the collagen.
• Solutions of the kit: Reference MAK293-1KT (Sigma Aldrich) • Collagenase buffer (MAK293A-KC) • Collagenase solution (MAK293B-KC) • Collagenase substrate (MAK293C-KC) • Pharmethyl 96° ethyl alcohol, Reference 11371014 (Cristalco) • Purified water
A solution is made of exactly 1% (w/V) hamamelitannin (Extrasynthesis ref. 0958) in ethyl alcohol.
A solution of exactly 1% (w/V) sagerinic acid (prepared according to example 5.1.) is made in purified water.
as §1
• After addition, stir quickly by hand • Place in an oven at 37 °C for 30 minutes • Add 1.6 mL of purified water. Mix well. • Read the DO: Sample against blank, spectrophotometer at 345 nm.
The anti-collagenase activity of sagerinic acid was compared with that of hamamelitannin as a reference molecule.
In absolute values: Y=[(DOBlank 2−DOTest)−(DOBlank 1−DOcontrol)]/(DOBlank 1−DOcontrol)]×100

Activity (activation of sirtuin-1) (SIRT1): 80.54 arbitrary dimensionless unit
SMILES: Oc1ccc(C=Cc2cc(O)cc(O)c2)cc1 [Resveratrol, resveratrol, reference compound]

SMILES: O=C(O[C@H](Cc1ccc(O)c(O)c1)C(=O)O)C1C(c2ccc(O)c(O)c2)C(C(=O)O[C@H](Cc2ccc(O)c(O)c2)C(=O)O)C1c1ccc(O)c(O)c1 (stereo partly shown) [Sagerinic acid]
Activity (elimination of DPPH free radical) [1]: 9.70 arbitrary dimensionless unit | effect in eliminating free radicals relative to ascorbic acid ([1]; vs ascorbic acid): almost twice the effect of ascorbic acid | protein deglycating activity (in words) [2]: good protein deglycating activity | Activity (protein deglycating activity) [2]: 16.78 arbitrary dimensionless unit | effect on sirtuin activation (in words) (SIRT1): good effect on sirtuin activation | Activity (activation of sirtuin-1) (SIRT1): 26.56 arbitrary dimensionless unit | inhibitory effect on proteases (collagenases) relative to hamamelitannin (Collagenase): more than 2 times

SMILES: Cc1sc[n+](CC(=O)c2ccccc2)c1C [Alagebrium, reference compound]
Activity (protein deglycating activity) [2]: 28.79 arbitrary dimensionless unit

SMILES: O=C1O[C@H]([C@@H](O)CO)C(O)=C1O [Ascorbic acid, ascorbic acid, reference compound]
Activity (elimination of DPPH free radical) [1]: 5.26 arbitrary dimensionless unit
